ChEMBL document CHEMBL1201862, “PubChem BioAssay data set” (2004)
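Protocol summary: plate cells (96-well), add compound at 5 concentrations, incubate 48 h, interpolate endpoints linearly. GI50 is the concentration that inhibits growth by half.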 The source made the active and inactive calls. Rule as the data show it: active = GI50 up to about 1.1 µM and inactive = higher. Starred links: 1 amine or outer side, 2 acyl side, 3 side chain; linkers in the order of their positions; H or OH if unused. Positions of bridges follow the written chain, without caps; N, C: chain ends. Non-standard residues stand in square brackets, D forms with d. Residues, ends and D or L forms follow the SMILES beside them. Chains are numbered I, II in the order given. Actinocin(9to1) = Cc1c2oc3c(C)ccc(C(=O)[*:1])c3nc-2c(C(=O)[*:2])c(N)c1=O; NMeV = CN[CH](C(=O)O)C(C)C; Sar = CNCC(=O)O

Legend:
Experiment in all cases: NCI anticancer screen, dose series, 48 h
RXF 393 = tested on: RXF 393
HCC 2998 = tested on: HCC 2998
MDA-MB-435 = tested on: MDA-MB-435
SK-MEL-28 = tested on: SK-MEL-28
NCI-H460 = tested on: NCI-H460
MDA-N = tested on: MDA-N
CCRF-CEM = tested on: CCRF-CEM
EKVX = tested on: EKVX
SN12C = tested on: SN12C
TK-10 = tested on: TK-10
OVCAR-8 = tested on: OVCAR-8
PC-3 = tested on: PC-3
A498 = tested on: A498
NCI-H23 = tested on: NCI-H23
HT-29 = tested on: HT-29
SF-268 = tested on: SF-268
COLO 205 = tested on: COLO 205
Malme-3M = tested on: Malme-3M
UO-31 = tested on: UO-31
SF-539 = tested on: SF-539

SMILES	GI50 (RXF 393)	GI50 (HCC 2998)	GI50 (MDA-MB-435)	GI50 (SK-MEL-28)	GI50 (NCI-H460)	GI50 (MDA-N)	GI50 (CCRF-CEM)	GI50 (EKVX)	GI50 (SN12C)	GI50 (TK-10)	GI50 (OVCAR-8)	GI50 (PC-3)	GI50 (A498)	GI50 (NCI-H23)	GI50 (HT-29)	GI50 (SF-268)	GI50 (COLO 205)	GI50 (Malme-3M)	GI50 (UO-31)	GI50 (SF-539)
Oc1cc(Cl)cc2cccnc12	3.02 µM (inactive)	24.5 µM (inactive)	3.52 µM (inactive)	19.3 µM (inactive)	1.44 µM (inactive)	17.9 µM (inactive)	0.288 µM (active)	0.804 µM (active)	1.7 µM (inactive)	57.5 µM (inactive)	0.528 µM (active)	1.26 µM (inactive)	11.5 µM (inactive)	1.29 µM (inactive)	9.31 µM (inactive)	0.296 µM (active)	6.65 µM (inactive)	3.02 µM (inactive)	0.847 µM (active)	
Cn1c2c(c3ccccc31)CCN(CCCCN1CCN(c3ccccc3)CC1)C2=O	10.8 µM (inactive)	5.62 µM (inactive)	17.5 µM (inactive)	15.8 µM (inactive)	28.6 µM (inactive)	21.6 µM (inactive)	24.5 µM (inactive)	> 38.5 µM (inactive)	> 65.6 µM (inactive)	45 µM (inactive)	47.6 µM (inactive)	11.7 µM (inactive)	45 µM (inactive)	35.6 µM (inactive)	4.16 µM (inactive)	56 µM (inactive)	8.51 µM (inactive)	8.04 µM (inactive)	17.3 µM (inactive)	34 µM (inactive)
Cc1cc(C)n(C(=O)C(C)Sc2nnc(SC(C)C(=O)n3nc(C)cc3C)s2)n1 (configuration not stated)	> 100 µM (inactive)	> 100 µM (inactive)	> 100 µM (inactive)	> 100 µM (inactive)	> 100 µM (inactive)	> 100 µM (inactive)	> 100 µM (inactive)	> 100 µM (inactive)		> 100 µM (inactive)	> 100 µM (inactive)	> 100 µM (inactive)	> 100 µM (inactive)	> 100 µM (inactive)	> 100 µM (inactive)	> 100 µM (inactive)	> 100 µM (inactive)	> 100 µM (inactive)	> 100 µM (inactive)	
CC1CC(C)(O)CC(C(O)CC2CC(=O)NC(=O)C2)C1=O (configuration not stated) [RESACTIN A]	0.0344 µM (active)	0.0441 µM (active)	0.0432 µM (active)	0.0478 µM (active)	0.0385 µM (active)	0.0372 µM (active)	< 0.014 µM (active)	0.0505 µM (active)	0.0202 µM (active)	0.187 µM (active)	0.0266 µM (active)	0.0465 µM (active)	0.067 µM (active)	0.0413 µM (active)	0.037 µM (active)	0.0455 µM (active)	0.0381 µM (active)	0.0546 µM (active)	0.055 µM (active)	0.0197 µM (active)
Cc1cc(N(CCC#N)CCC#N)ccc1C(/N=N/c1ccc(Cl)cc1)=N\NC(=O)c1ccccc1	49.2 µM (inactive)	31 µM (inactive)	5.62 µM (inactive)		39.7 µM (inactive)	5.21 µM (inactive)	31.5 µM (inactive)	37.9 µM (inactive)	44.2 µM (inactive)	60.5 µM (inactive)	42.1 µM (inactive)	32.5 µM (inactive)	13.6 µM (inactive)	33.7 µM (inactive)	20.5 µM (inactive)	41.9 µM (inactive)	27.6 µM (inactive)	20.4 µM (inactive)	67.6 µM (inactive)	7.62 µM (inactive)
Cc1ccc(CN2CCN(Cc3ccc(C)o3)C(C)C2)o1 (configuration not stated)	> 100 µM (inactive)	> 100 µM (inactive)	> 100 µM (inactive)	> 100 µM (inactive)	> 100 µM (inactive)	> 100 µM (inactive)	> 100 µM (inactive)	> 100 µM (inactive)	> 100 µM (inactive)	> 100 µM (inactive)	> 100 µM (inactive)	> 100 µM (inactive)	> 100 µM (inactive)	> 100 µM (inactive)	> 100 µM (inactive)	> 100 µM (inactive)	> 100 µM (inactive)	> 100 µM (inactive)	> 100 µM (inactive)	> 100 µM (inactive)
COc1cc2ccccc2c2cc([N+](=O)[O-])oc12	0.207 µM (active)		0.214 µM (active)	0.261 µM (active)	0.183 µM (active)	0.216 µM (active)	0.26 µM (active)	4.19 µM (inactive)	0.927 µM (active)	0.173 µM (active)	1.9 µM (inactive)	3.04 µM (inactive)	0.177 µM (active)	1.2 µM (inactive)	0.406 µM (active)	0.537 µM (active)	0.379 µM (active)	0.126 µM (active)	0.618 µM (active)	0.91 µM (active)
Cc1ccc(S(=O)(=O)N2CCCN(S(=O)(=O)c3ccc(C)cc3)CC2)cc1	> 100 µM (inactive)	> 100 µM (inactive)	> 100 µM (inactive)	> 100 µM (inactive)	> 100 µM (inactive)	> 100 µM (inactive)	> 100 µM (inactive)		> 100 µM (inactive)	> 100 µM (inactive)	> 100 µM (inactive)	> 100 µM (inactive)	2.75 µM (inactive)	> 100 µM (inactive)	> 100 µM (inactive)	> 100 µM (inactive)	> 100 µM (inactive)		> 100 µM (inactive)	
O=C1CCC(NC(=O)c2ccccc2)C(=O)N1 (configuration not stated)	> 100 µM (inactive)	> 100 µM (inactive)	> 100 µM (inactive)	> 100 µM (inactive)	> 100 µM (inactive)	> 100 µM (inactive)		> 100 µM (inactive)	> 100 µM (inactive)	> 100 µM (inactive)	> 100 µM (inactive)	> 100 µM (inactive)	> 100 µM (inactive)	> 100 µM (inactive)	> 100 µM (inactive)	> 100 µM (inactive)	> 100 µM (inactive)	> 100 µM (inactive)	> 100 µM (inactive)	> 100 µM (inactive)
N#Cc1c(N)sc2c1-c1ccccc1OC2	16 µM (inactive)	26 µM (inactive)	32.5 µM (inactive)	44.2 µM (inactive)	36.4 µM (inactive)	21.1 µM (inactive)	12.4 µM (inactive)	3.52 µM (inactive)	19.7 µM (inactive)	32.1 µM (inactive)		32.4 µM (inactive)	29.3 µM (inactive)	45.4 µM (inactive)	26.2 µM (inactive)	37.1 µM (inactive)	42.8 µM (inactive)	41.2 µM (inactive)	25.2 µM (inactive)	46.6 µM (inactive)
COc1ccc2cc(C(=O)NCCCNC(=O)c3ccc4c(OC)c(OC)ccc4c3)ccc2c1OC	> 100 µM (inactive)	> 100 µM (inactive)	> 100 µM (inactive)	> 100 µM (inactive)	> 100 µM (inactive)	> 100 µM (inactive)	> 100 µM (inactive)	> 100 µM (inactive)	> 100 µM (inactive)			> 100 µM (inactive)	> 100 µM (inactive)	> 100 µM (inactive)	> 100 µM (inactive)	> 100 µM (inactive)	> 100 µM (inactive)		> 100 µM (inactive)	
Cc1c2oc3c(C)ccc(C(=O)NC4C(=O)NC(Cc5ccc(O)cc5)C(=O)N5CCCC5C(=O)N(C)CC(=O)N(C)C(C(C)C)C(=O)OC4C)c3nc-2c(C(=O)NC2C(=O)NC(Cc3ccc(O)cc3)C(=O)N3CCCC3C(=O)N(C)CC(=O)N(C)C(C(C)C)C(=O)OC2C)c(N)c1=O (configuration not stated) (I: TYP[Sar][NMeV] / II: TYP[Sar][NMeV]; ester I:1-I:C, II:1-II:C; linker I:N-II:N via Actinocin(9to1); configuration not given here)	0.406 µM (active)	> 40.2 µM (inactive)	1.93 µM (inactive)	0.365 µM (active)	0.215 µM (active)	0.535 µM (active)		70.5 µM (inactive)	1.48 µM (inactive)	13.7 µM (inactive)	0.8 µM (active)	4.11 µM (inactive)	16 µM (inactive)	0.494 µM (active)	0.755 µM (active)	0.16 µM (active)	0.403 µM (active)	0.392 µM (active)	17.9 µM (inactive)	0.726 µM (active)
CCc1nc2cc3cccnc3c(Cl)c2[nH]c1=O	31.8 µM (inactive)	> 100 µM (inactive)	> 100 µM (inactive)	> 100 µM (inactive)	> 100 µM (inactive)	> 100 µM (inactive)	> 100 µM (inactive)	> 100 µM (inactive)	> 100 µM (inactive)	89.5 µM (inactive)	> 100 µM (inactive)	> 100 µM (inactive)	> 100 µM (inactive)	> 100 µM (inactive)	> 100 µM (inactive)	> 100 µM (inactive)	> 100 µM (inactive)	> 100 µM (inactive)	> 100 µM (inactive)	
O=C1c2cccnc2-c2nccc3c2c1nc1ccccc13 [ASCIDIDEMIN]	0.14 µM (active)		0.19 µM (active)	0.321 µM (active)	0.0879 µM (active)	0.157 µM (active)	0.501 µM (active)	0.912 µM (active)	0.186 µM (active)	1.27 µM (inactive)	0.0505 µM (active)	0.188 µM (active)	0.27 µM (active)	0.172 µM (active)	1.19 µM (inactive)	0.109 µM (active)	1.99 µM (inactive)	0.231 µM (active)	0.143 µM (active)	0.189 µM (active)
CCOC(=O)/C=C/c1nc(C#N)c(N)o1	1.46 µM (inactive)		> 100 µM (inactive)	> 100 µM (inactive)		> 100 µM (inactive)	> 100 µM (inactive)	> 100 µM (inactive)	> 100 µM (inactive)	> 100 µM (inactive)	> 100 µM (inactive)	> 100 µM (inactive)	> 100 µM (inactive)		> 100 µM (inactive)	> 100 µM (inactive)			53.6 µM (inactive)	
